Some test systems named below: HCT-15 colon; U251 CNS; SF-539 CNS; A498 renal; SF-295 CNS; RPMI-8226 leukemia; HS 578T breast; MOLT-4 leukemia; HL-60(TB) leukemia.
Holding throughout (test): DTP human tumour cell line panel, 48 h

SMILES strings stand for the structures.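 A five-concentration, 48-hour dose response in 96-well plates underlies each endpoint, interpolated linearly between surrounding concentrations. TGI marks complete inhibition of growth.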

Broadly, the TGI is the concentration giving total growth inhibition.

As to `O=[N+]([O-])c1cc(Br)cc2cc(Cl)cnc12`, the TGI in the test with HCT-15 colon, with U251 CNS, in the test on SF-539 CNS, with A498 renal, in the test with SF-295 CNS and in the test with RPMI-8226 leukemia was more than 100 µM in each case. Further, the TGI in the test with HS 578T breast, in the test on MOLT-4 leukemia and with HL-60(TB) leukemia was more than 100 µM throughout.
With `C=C1CC[C@@]2(C)[C@@H]([C@@H]1C)[C@H]1CC[C@@H]3[C@@]4(C)CC[C@H](O)C(C)(C)[C@@H]4CC[C@@]3(C)[C@]1(C)C[C@@H]2O`, the TGI was 11.2 µM in the test with HCT-15 colon; 6.29 µM in the test with SF-539 CNS; 4.35 µM with A498 renal; 12.2 µM in the test with SF-295 CNS; more than 100 µM in the test on RPMI-8226 leukemia; 7.29 µM in the test on HS 578T breast. Moreover, the values for the TGI in the test with MOLT-4 leukemia and in the test with HL-60(TB) leukemia were more than 100 µM and more than 55.7 µM, respectively.
As for `CN1C(=O)N(C)C2(CCN(CC(CC3OCCO3)c3ccc(F)cc3)CC2)C1=O` (stereo unspecified), the TGI in the test with HCT-15 colon, with U251 CNS, in the test on SF-539 CNS, in the test on A498 renal, with SF-295 CNS and with RPMI-8226 leukemia was more than 100 µM in each case. Also, the TGI in the test on HS 578T breast, in the test on MOLT-4 leukemia and in the test on HL-60(TB) leukemia was more than 100 µM each time.
On to `O=[N+]([O-])c1cc(C2(N3CCCCC3)CCCCC2)sc1Br`, for which the TGI with HCT-15 colon was 17.2 µM; with U251 CNS, 19.1 µM; in the test on SF-539 CNS, 17.9 µM; in the test on A498 renal, 16.1 µM; with SF-295 CNS, 30.1 µM; with RPMI-8226 leukemia it was 4.45 µM. Further, the TGI with HS 578T breast was more than 58.5 µM; in the test with MOLT-4 leukemia, 8.12 µM; in the test on HL-60(TB) leukemia it was 5.24 µM.
As for `c1ccc(-c2cnc(SC(c3ccccc3)c3ccccc3)[nH]2)cc1`, the TGI in the test with HCT-15 colon was 38.8 µM; with U251 CNS, more than 100 µM; in the test on SF-539 CNS, more than 100 µM; with A498 renal, more than 100 µM; in the test with SF-295 CNS, more than 100 µM; in the test on RPMI-8226 leukemia, 48.5 µM. Besides, the results for the TGI with HS 578T breast, with MOLT-4 leukemia and in the test with HL-60(TB) leukemia were more than 100 µM, more than 100 µM and 40.7 µM, respectively.
For the molecule `CN(C)c1ccc(/C=C/C(=O)c2cc(C(C)(C)C)c(O)c(C(C)(C)C)c2)cc1`, the TGI in the test on HCT-15 colon was more than 100 µM; in the test on U251 CNS it was 5.79 µM; with SF-539 CNS, 1.8 µM; in the test with A498 renal it was more than 100 µM; with SF-295 CNS, 5.33 µM; with RPMI-8226 leukemia, 8.63 µM. For the same molecule, the values for the TGI with HS 578T breast, in the test with MOLT-4 leukemia and in the test with HL-60(TB) leukemia were more than 100 µM, more than 100 µM and more than 24.4 µM, respectively.
As to `Cn1c(N/N=C/c2ccccc2)nc(-c2ccc3c(c2)OCO3)c(C#N)c1=O`, the TGI in the test with HCT-15 colon, with U251 CNS, in the test on SF-539 CNS, in the test with A498 renal, in the test on SF-295 CNS and in the test on RPMI-8226 leukemia was more than 100 µM in each case. Moreover, the total growth inhibition concentration (TGI) with HS 578T breast, with MOLT-4 leukemia and with HL-60(TB) leukemia was more than 100 µM each time.
As for `COc1ccc2[nH]c3cc4c(=O)c5cc(OC)ccc5[nH]c4cc3c(=O)c2c1`, the TGI in the test on HCT-15 colon, with U251 CNS, in the test on A498 renal, in the test with SF-295 CNS, in the test with RPMI-8226 leukemia and in the test on HS 578T breast was more than 100 µM each time. Moreover, the TGI is more than 100 µM in the test on MOLT-4 leukemia and 36.2 µM in the test on HL-60(TB) leukemia.
For `C=C1C(=O)OC2C1CCC(=C)C1CC(O)C(=C)C12` (stereo unspecified), the TGI in the test with HCT-15 colon is 25.1 µM; in the test on U251 CNS, 50.3 µM; in the test with SF-539 CNS, 35.2 µM; in the test on A498 renal it was 38 µM; in the test on SF-295 CNS it was more than 100 µM; with RPMI-8226 leukemia, 23 µM. The TGI was more than 100 µM with HS 578T breast, 25 µM in the test on MOLT-4 leukemia and 5.79 µM with HL-60(TB) leukemia.
Turning to `CCCNC1=C2C[C@@H](C)C[C@@H](OC)[C@@H](OC(=O)CCCN)[C@H](C)/C=C(\C)[C@@H](OC(N)=O)[C@H](OC)/C=C\C=C(/C)C(=O)NC(=CC1=O)C2=O`, the TGI in the test with HCT-15 colon was 46.8 µM; in the test on U251 CNS it was more than 35 µM; in the test on SF-539 CNS, 39.9 µM; with A498 renal it was 37.1 µM; in the test on SF-295 CNS, 36.8 µM; in the test on RPMI-8226 leukemia it was 29.1 µM. Further, the TGI with HS 578T breast is 60.9 µM; in the test with MOLT-4 leukemia, 19.2 µM; in the test with HL-60(TB) leukemia it was 8.01 µM.
Turning to `C[C@@H]1C[C@H]2OC(=O)[C@@]3(C)CCC[C@@](C)([C@@H]23)[C@@]1(O)CCc1ccoc1`, the TGI in the test with HCT-15 colon, in the test on U251 CNS, with SF-539 CNS, in the test on A498 renal, in the test with SF-295 CNS and in the test on RPMI-8226 leukemia was more than 100 µM in each case. The results for the TGI in the test on HS 578T breast, in the test with MOLT-4 leukemia and in the test on HL-60(TB) leukemia were more than 100 µM, more than 94.4 µM and more than 88.6 µM, respectively.
As to `Cc1nc2cn3c(c2c(=O)[nH]1)CCCCC3`, the TGI in the test on HCT-15 colon, with U251 CNS, in the test on SF-539 CNS, in the test with A498 renal, in the test on SF-295 CNS and in the test with RPMI-8226 leukemia was more than 100 µM throughout. The TGI with HS 578T breast, in the test on MOLT-4 leukemia and with HL-60(TB) leukemia was more than 100 µM throughout.
Turning to `O=C(O)c1cc2ccccc2c(Cc2c(O)c(C(=O)O)cc3ccccc23)c1O`, the TGI with HCT-15 colon, with U251 CNS, in the test with A498 renal, in the test on SF-295 CNS, in the test with RPMI-8226 leukemia and in the test on HS 578T breast was more than 100 µM in each case. Also, the TGI with MOLT-4 leukemia and with HL-60(TB) leukemia was more than 100 µM throughout.
On to `Nc1nc(Cl)cc(NCC2(CO)CCCCC2)n1`, for which the TGI with HCT-15 colon, in the test on U251 CNS, in the test with SF-539 CNS, in the test with A498 renal, with SF-295 CNS and in the test on RPMI-8226 leukemia was more than 100 µM throughout. Besides, the TGI with HS 578T breast, with MOLT-4 leukemia and in the test with HL-60(TB) leukemia was more than 100 µM each time.
With `O=c1oc2ccc([N+](=O)[O-])cc2nc1/C=C(\O)c1ccccc1`, the TGI with HCT-15 colon, in the test with U251 CNS, in the test with A498 renal, with SF-295 CNS, in the test on RPMI-8226 leukemia and in the test with HS 578T breast was more than 100 µM in each case. The TGI with MOLT-4 leukemia and with HL-60(TB) leukemia was more than 100 µM throughout.
